Among the data in paper PMC12040169 (PLOS Biology, 2025) are viability values, retold here.

The viability is a read-out of living cells in per cent, often relative to untreated cells.

The first data set in a line: in vitro. Conditions: human, hela cells, % viability.
As for `O=S(=O)(c1ccc2nc(-c3ccccc3)c(-c3ccc(O)cc3)nc2c1)c1ccc2nc(-c3ccccc3)c(-c3ccc(O)cc3)nc2c1` [CBK261148], the viability at 28.5 h, 10 µM was 108%.

Consider `O=C(O)c1ccc(C2(c3ccc(C(=O)O)cc3)OC(=O)c3ccccc32)cc1` [CBK261150], for which the viability at 28.5 h, 10 µM is 98.2%.

As to `Cc1ccc(S(=O)(=O)Nc2ccc(C3(c4ccc(NS(=O)(=O)c5ccc(C)cc5)cc4)c4ccccc4C(=O)c4ccccc43)cc2)cc1` [CBK261155], the viability at 28.5 h, 10 µM was found to be 111%.

As for `Oc1ccccc1/C=N/c1ccc(Cc2ccc(/N=C/c3ccccc3O)c(O)c2)cc1O` [CBK261156], the viability at 28.5 h, 10 µM amounted to 93.4%.

For `C(#Cc1cccc(-c2nc3ccccc3nc2-c2cccc(C#Cc3ccc(Sc4ccccc4)cc3)c2)c1)c1ccc(Sc2ccccc2)cc1` [CBK261158], the viability at 28.5 h, 10 µM worked out at 93.2%.

On to `O=C(Nc1ccc2nc(-c3ccc(-c4nc5ccc(NC(=O)c6cccc7ccccc67)cc5[nH]4)cc3)[nH]c2c1)c1cccc2ccccc12` [CBK261160], for which the viability at 28.5 h, 10 µM was 120%.

With `O=C(Nc1ccc(-c2nc3ccc(-c4nc5ccc(NC(=O)c6cccc7ccccc67)cc5[nH]4)cc3[nH]2)cc1)c1cccc2ccccc12` [CBK261161], the viability at 28.5 h, 10 µM was 94.4%.

As for `CC(C)(C)c1ccc(OCC(O)CNS(=O)(=O)O)cc1` (stereo not drawn) [CBK261169N], the viability at 28.5 h, 10 µM was found to be 102%.

`Cc1ccc(S(=O)(=O)NCC23C=CC(O2)C2C(=O)N(Cc4ccccc4)C(=O)C23)cc1` (stereo not drawn) [CBK261170]: the viability at 28.5 h, 10 µM worked out at 107%.

As to `CCOC(=O)C(C(=O)OCC)(N1CCOCC1)N1CCOCC1` [CBK261176], the viability at 28.5 h, 10 µM is 112%.

On to `O=C(O)c1c(Cl)c(C(=O)O)c(C(=O)O)c(Cl)c1C(=O)O` [CBK261177], for which the viability at 28.5 h, 10 µM was determined as 96.8%.

Take `O=C(O)c1ccc2c(c1)C(=O)N(c1ccc(/C=C/C(=O)c3ccccc3)cc1)C2=O` [CBK261181]: the viability at 28.5 h, 10 µM was 79.6%.

On to `O=C(c1ccc2c(c1)C(=O)N(N1C(=O)c3ccccc3C1=O)C2=O)c1ccc2c(c1)C(=O)N(N1C(=O)c3ccccc3C1=O)C2=O` [CBK261182], for which the viability at 28.5 h, 10 µM was determined as 96.4%.

For the molecule `O=C(O)c1ccc(C(=O)c2c3c(=O)n(-c4ccccc4C(=O)O)c(=O)c3cc3c(=O)n(-c4ccccc4C(=O)O)c(=O)c23)cc1` [CBK261183], the viability at 28.5 h, 10 µM amounted to 91.7%.

For `O=C(Nc1c[nH]c(=O)[nH]c1=O)c1ccc(Oc2ccc(C(=O)Nc3c[nH]c(=O)[nH]c3=O)cc2)cc1` [CBK261184], the viability at 28.5 h, 10 µM came out at 108%.

`O=C(O)c1ccccc1N1C(=O)c2ccc(Oc3ccc(Oc4ccc5c(c4)C(=O)N(c4ccccc4C(=O)O)C5=O)cc3)cc2C1=O` [CBK261186]: the viability at 28.5 h, 10 µM was found to be 88.6%.

With `O=C(O)c1ccc2c(c1)C(=O)N(c1ccc(-c3ccc(N4C(=O)c5ccc(C(=O)O)cc5C4=O)cc3)cc1)C2=O` [CBK261187], the viability at 28.5 h, 10 µM came out at 99.3%.

For `O=C(O)c1cc(NC(=O)C(c2ccccc2)c2ccccc2)cc(C(=O)O)c1` [CBK261191], the viability at 28.5 h, 10 µM was found to be 93.2%.

In the case of `O=C(Nc1cccc(O)c1)c1ccc2c(c1)C(=O)N(c1cccc(N3C(=O)c4ccc(C(=O)Nc5cccc(O)c5)cc4C3=O)n1)C2=O` [CBK261199], the viability at 28.5 h, 10 µM came out at 89.8%.

Take `O=C1c2ccc(Oc3ccc4c(c3)C(=O)N(c3ccccn3)C4=O)cc2C(=O)N1c1ccccn1` [CBK261202]: the viability at 28.5 h, 10 µM is 99.3%.

`Oc1ccc(/N=C/c2ccc(/C=N/c3ccc(O)cc3)cc2)cc1` [CBK261203]: the viability at 28.5 h, 10 µM came to 98.5%.

`CC(Oc1cccc(Cl)c1)C(=O)NN` (stereo not drawn) [CBK261207]: the viability at 28.5 h, 10 µM stood at 90.1%.

As for `NNC(=O)COc1ccc2ccccc2c1` [CBK261208], the viability at 28.5 h, 10 µM is 104%.

`CC(Oc1cccc2ccccc12)C(=O)NN` (stereo not drawn) [CBK261209]: the viability at 28.5 h, 10 µM stood at 112%.

In the case of `O=C(O)/C(=N\O)c1ccc(CCc2ccccc2)s1` [CBK261213], the viability at 28.5 h, 10 µM amounted to 90.8%.

As for `NNC(=O)/C(=C\c1ccccc1)CCO` [CBK261215], the viability at 28.5 h, 10 µM is 117%.

Take `O=C(O)/C=C\C(=O)Nc1ccc(Oc2ccccc2)cc1` [CBK261216]: the viability at 28.5 h, 10 µM was 102%.

Consider `Clc1ccccc1C1N(Cc2ccccc2)CCN1Cc1ccccc1` [CBK261217], for which the viability at 28.5 h, 10 µM turned out to be 93.8%.

For `O=C(CCc1ccccc1)N/N=C/c1cc2c(cc1[N+](=O)[O-])OCO2` [CBK261221], the viability at 28.5 h, 10 µM amounted to 111%.

`Clc1cccc(C2N(Cc3ccccc3)CCN2Cc2ccccc2)c1` [CBK261222]: the viability at 28.5 h, 10 µM worked out at 93.1%.

Regarding `COc1cccc(/C=N/c2cc(S(=O)(=O)c3ccc(O)c(/N=C/c4cccc(OC)c4O)c3)ccc2O)c1O` [CBK261225], the viability at 28.5 h, 10 µM worked out at 92.4%.

As for `O=[N+]([O-])c1ccc(/C=N/c2ccc(Cc3ccc(/N=C/c4ccc([N+](=O)[O-])s4)cc3)cc2)s1` [CBK261228], the viability at 28.5 h, 10 µM was determined as 98.3%.

Take `Oc1cccc(/C=N/c2ccc(Cc3ccc(/N=C/c4cccc(O)c4)cc3)cc2)c1` [CBK261230]: the viability at 28.5 h, 10 µM worked out at 103%.

For `COc1ccc(Br)cc1/C=N/Nc1nc(NCc2ccccc2)nc(N2CCOCC2)n1` [CBK261232], the viability at 28.5 h, 10 µM came to 92.9%.

As to `Oc1ccc2ccccc2c1/C=N/Nc1nc(NCc2ccccc2)nc(N2CCOCC2)n1` [CBK261233], the viability at 28.5 h, 10 µM worked out at 93.8%.

Turning to `O=C(Oc1ccc(/C=N/c2ccc(-c3nc4ccccc4s3)c(O)c2)cc1)c1ccc(Cl)cc1` [CBK261234], the viability at 28.5 h, 10 µM amounted to 100%.

For `O=[N+]([O-])c1cc(/C=N/Nc2nc(N3CCOCC3)nc(N3CCOCC3)n2)c(O)c([N+](=O)[O-])c1` [CBK261237], the viability at 28.5 h, 10 µM is 105%.

As to `COc1cc(/C=N/c2ccc3oc(-c4ccc(C(C)(C)C)cc4)nc3c2)ccc1OC(=O)c1ccc(Cl)cc1Cl` [CBK261238], the viability at 28.5 h, 10 µM was 104%.

For the molecule `COc1cc(/C=N/c2ccc3oc(-c4cccc(I)c4)nc3c2)ccc1OC(=O)c1ccc(Cl)cc1Cl` [CBK261239], the viability at 28.5 h, 10 µM is 95.3%.

Take `O=C(Oc1ccc(/C=N/c2ccc(O)c(-c3nc4ccccc4s3)c2)cc1)c1ccccc1Cl` [CBK261241]: the viability at 28.5 h, 10 µM is 89.9%.

Turning to `Oc1ccc(/N=C/C=C/c2ccc(Cl)cc2Cl)cc1-c1nc2ccccc2s1` [CBK261242], the viability at 28.5 h, 10 µM came to 107%.

Take `COc1cc(/C=N/c2ccc(O)c(-c3nc4ccccc4s3)c2)ccc1OC(=O)c1ccc(Cl)cc1Cl` [CBK261243]: the viability at 28.5 h, 10 µM turned out to be 101%.

With `O=[N+]([O-])c1cccc(/C=C/C=N/c2ccc3c(c2)S(=O)(=O)c2cc(/N=C/C=C/c4cccc([N+](=O)[O-])c4)ccc2-3)c1` [CBK261244], the viability at 28.5 h, 10 µM is 97.6%.

For the molecule `CC(O)(CC(=O)O)C12CC3CC(CC(C3)C1)C2` (stereo not drawn) [CBK261245], the viability at 28.5 h, 10 µM was 114%.

As for `COc1ccc(/C=C/C(=O)O)cc1S(=O)(=O)Nc1ccc(C(=O)O)cc1` [CBK261246], the viability at 28.5 h, 10 µM came out at 108%.

For `O=C(NC(C(=O)N/N=C/c1cccs1)c1n[nH]c(=O)c2ccccc12)c1ccccc1` (stereo not drawn) [CBK261250], the viability at 28.5 h, 10 µM is 98%.

Take `C/C(=N\NC(=O)c1ccccc1O)c1ccc(NC(=O)c2ccc(C)cc2)cc1` [CBK261251]: the viability at 28.5 h, 10 µM is 84.7%.

The same data set, now with this note: human, hela cells, % viability, bulk resorufin, single well.
Turning to `O=C(Nc1cc([N+](=O)[O-])ccc1O)c1cccc(C(=O)Nc2cc([N+](=O)[O-])ccc2O)c1` [CBK261168], the viability at 28.5 h, 10 µM was 102%.
